Cn1cc(C(=O)NCc2ccc(Cl)cc2)c(=O)c2cc(COCC[C@@H](O)c3ccccc3)sc21
melting point: 154.5 to 155.5 °C

From patent publication US20050004161A1 (published 2005)
